# Test results reported in PMC12566971, “Polyprenylated Acylphloroglucinols from Hypericum rochelii and Hypericum olympicum—Cytotoxic Effects on Non-Tumorigenic Cell Lines and Antibacterial Potential” (Pharmaceuticals, 2025).
# “And” between values parts separate entries of the source, which are not always exact repeats. Identical values can stand only once.
# Legend:
# Enterococcus faecalis = test: MIC and MBC evaluation (broth microdilution, agar plate assay); assay type: cell-based
# Protocol: (§1) The MIC and MBC assessment on the pathogenic bacteria and the candidate probiotic lactic acid bacteria was carried out by the broth microdilution assay (BMD) and the agar plate assay, respectively, as described in [4]. The metabolic (dehydrogenase) activity of the lactic acid bacteria was assessed as described in [4].
# (§2) P. aeruginosa PAO1 ATCC 15692 was purchased from the American Type Cell Culture Collection (ATCC, Manassas, VA, USA). S. mutans DSM 20523 was bought from the German Collection of Microorganisms and Cell Cultures (DSMZ GmbH, Braunschweig, Germany). All other bacteria and strains were purchased as described in [4].
# Staphylococcus aureus = test: as above; assay type: cell-based
# Protocol: as §1, §2
# Streptococcus mutans = test: as above; assay type: cell-based
# Protocol: as §1, §2
# Streptococcus pyogenes = test: as above; assay type: cell-based
# Protocol: as §1, §2
# S. aureus = test: Time kill assay; assay type: cell-based, Staphylococcus aureus
# Protocol: A time kill assay was performed according to the modified protocol of Sendi and Ruppen, 2015 [137]. […] From these dilutions, 25 µL was seeded in brain heart infusion agar in a well of a 12-well plate. An untreated control was plated in the same way. Then, the bacterial suspension (treated and untreated) was placed in an incubator (MLW Kombinat, Leipzig, Germany) at 37 °C. Again, 25 µL of it was taken for seeding after 1, 2, 3, 4, 6, and 24 h, which equals a total of 7 time points. After 16–24 h of incubation, the colonies in the seeded plates from all dilutions were counted, and the number of colony-forming units (CFU) per mL, or in other words, bacteria per mL, was calculated.
# HGF cells = test: Western blot for autophagy proteins Atg5, Atg7; assay type: cell-based, human; conditions: MIC for S. aureus, relative to untreated control
# Protocol: For Western blot, CCL-1 and HGF cell lines were chosen, and they were seeded in either 6-well plates or 55 mm Petri dishes suitable for cell culture. They were treated with an exposure time of 24 h in an incubator (Panasonic MCO-18AC, Panasonic Healthcare Ltd., […], Japan). […] Hans-Jörg Eibl. In addition, a higher concentration of an […] added to one of the tests for comparison. The samples were trypsinized, collected, washed with PBS (TS1101, HiMedia, Mumbai, India), centrifuged, and frozen at -80 °C if storage was necessary. Then they were lysed on ice with a buffer containing 100 mM Tris-HCl (648313, Sigma-Aldrich, St. Louis, MO, USA) at pH 8.0, 4% sodium dodecyl sulfate (SDS, […], Sigma-Aldrich), 20% glycerol (49779, Sigma-Aldrich), 1% Na3VO4 (450243, Sigma-Aldrich), 200 mM dithiothreitol (DTT, 3483-12-3, Sigma-Aldrich, Burlington, MA, USA) supplemented with protease inhibitor (05892970001, Roche). The cell lysate was heated to boiling for 15 min, then centrifuged at 13,000 rpm for 10 min at 4 °C. Lysates were subjected to denaturing SDS polyacrylamide gel electrophoresis on acrylamide 4-20% gradient Mini-PROTEAN® TGXTM Stain-Free gels (4568094, Bio-Rad Laboratories, Hercules, CA, USA). […] Densitometric calculation and analysis was performed with Quantity One software version 4.6.9 (Bio-Rad Laboratories).
# rabbit skin = conditions: in vivo
# Protocol: Dermal toxicological screening of the chosen two non-toxic active substances was performed on animals. This was carried out according to the European standard ISO 10993-10: 2010 (E): Biological evaluation of medical devices, Part 10 Skin irritation and sensitization tests (6. […] The animal study protocol was approved by the opinion No. 148 of 09.04.2019 of the Ethics Committee of the Bulgarian Food Safety Agency of the Ministry of Agriculture, Food, and Forestry. The Permit to work with experimental rabbits No. 232 was valid until 11.04.2024 and issued on the basis of Article 155, paragraph 7, of the Veterinary Medical Activity Act. The albino rabbits were cared for as specified in ISO 10993-2 (withdrawn; superseded by ISO 10993-2:2022) and Ordinance No. 20 (State Gazette of Bulgaria, No. 87, 9 November 2012). Four square test sites were made on the back of the rabbit by clipping the fur. The samples were applied to 2 of them, while the other 2 were used as a positive control (10–20% SDS) and a negative control (the buffer in which the agents were diluted, i.e., PBS). The exposure time was 4 h, and at the end of it the appearance was checked for erythema (redness) and edema. Additional inspections were performed at hours 24, 48, and 72.
# [1] = bactericidal if ≤ 4, bacteriostatic if > 4
structure (smiles),measurement,setting,value
CC(C)=CCCC1(C)C(CC=C(C)C)CC2C(=O)C1(C(=O)C(C)C)C(=O)C(CC=C(C)C)=C2O (stereo not shown) [Olympiforin B],MBC,Enterococcus faecalis; Enterococcus faecalis,55 µg/mL and 98 µM
same,"MBC/MIC ratio, E. faecalis",Enterococcus faecalis; [1],14
same,MBC,"Staphylococcus aureus; Staphylococcus aureus, read-out: Minimal bactericidal concentration (MBC), Staphylococcus aureus",19 µg/mL and 34 µM
same,"MBC/MIC ratio, S. aureus",Staphylococcus aureus; [1],19
same,MBC,"Streptococcus mutans; Streptococcus mutans, read-out: MBC for S. mutans",6.25 µg/mL and 11.1 µM
same,MIC,"Streptococcus mutans; Streptococcus mutans, read-out: MIC for S. mutans",3 µg/mL and 5.57 µM
same,"MBC/MIC ratio, Streptococcus mutans",Streptococcus mutans; [1],2
same,MBC,Streptococcus pyogenes; Streptococcus pyogenes,60 µg/mL and 107 µM
same,"MBC/MIC ratio, S. pyogenes",Streptococcus pyogenes; [1],15
same,Bacteria remaining in time kill assay,"S. aureus; 1/2 × MBC, 24 h","302,000 CFU/mL"
same,Outcome of time kill assay,"S. aureus; MBC concentration, by 24 h",killed all bacteria
same,Increase of Atg5 and Atg7 proteins,HGF cells,106–135%
same,Skin irritation on rabbits,rabbit skin,do not cause skin toxicity
